Broadly, the inhibition is how much of the control response was suppressed. As a reminder, the IC50 is the midpoint of a concentration-inhibition curve. High values mean a need for much substance, low ones inhibition by little substance.

The target in experiment [1] is T1, Muscarinic acetylcholine receptor (Rattus norvegicus) (UniProt P08482+P08483+P08485+P08911+P10980). Kind of experiment: Binding affinity towards muscarinic receptor using [3H]cis-methyldioxolane (CMD) to label agonist sites in membrane preparations from rat neocortex at 1 uM. The format is tissue-based.
The target of experiment [2] is T1, Muscarinic acetylcholine receptor (Rattus norvegicus). As to the kind of experiment: Binding affinity towards muscarinic receptor using [3H]quinuclidinyl benzilate (QNB) to label antagonist sites in membrane preparations from rat neocortex at 100 nM.
Experiment [3] has the same target. Kind of experiment: Ratio of QNB/CMD binding affinities to predict agonistic efficacy at muscarinic receptor. Type of experiment: protein assay.
In experiment [4] the target is Muscarinic acetylcholine receptor. As to the kind of experiment: Binding affinity towards muscarinic receptor using [3H]quinuclidinyl benzilate (QNB) to label antagonist sites in membrane preparations from rat neocortex.
The target is the same in experiment [5]. As to the kind of experiment: Binding affinity towards muscarinic receptor using [3H]cis-methyldioxolane (CMD) to label agonist sites in membrane preparations from rat neocortex. Type of experiment: tissue-based.
The target in experiment [6] is T2, Muscarinic acetylcholine receptor M2 (Homo sapiens) (UniProt P08172).
T2 sequence (whole entry): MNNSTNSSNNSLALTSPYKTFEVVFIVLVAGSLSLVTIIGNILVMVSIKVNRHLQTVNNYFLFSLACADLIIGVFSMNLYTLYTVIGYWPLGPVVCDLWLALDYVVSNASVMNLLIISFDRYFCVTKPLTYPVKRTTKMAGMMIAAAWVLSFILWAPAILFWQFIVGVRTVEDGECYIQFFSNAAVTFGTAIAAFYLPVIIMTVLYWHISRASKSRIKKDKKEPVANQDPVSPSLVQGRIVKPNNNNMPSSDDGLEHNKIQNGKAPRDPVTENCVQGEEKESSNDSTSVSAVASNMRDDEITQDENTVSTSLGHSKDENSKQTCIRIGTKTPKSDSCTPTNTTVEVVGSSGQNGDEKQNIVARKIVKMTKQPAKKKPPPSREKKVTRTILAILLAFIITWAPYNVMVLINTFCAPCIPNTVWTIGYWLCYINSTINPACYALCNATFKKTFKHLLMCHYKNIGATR
Kind of experiment: Inhibitory activity against forskolin-stimulated accumulation of cyclic adenosine monophosphate (cAMP) in CHO cells expressing human m2 receptor (max. concentration. 1 mM). The format is functional, cell-based.

The target in experiment [7] is T3, Muscarinic acetylcholine receptor M4 (Homo sapiens) (UniProt P08173).
T3 sequence (whole entry): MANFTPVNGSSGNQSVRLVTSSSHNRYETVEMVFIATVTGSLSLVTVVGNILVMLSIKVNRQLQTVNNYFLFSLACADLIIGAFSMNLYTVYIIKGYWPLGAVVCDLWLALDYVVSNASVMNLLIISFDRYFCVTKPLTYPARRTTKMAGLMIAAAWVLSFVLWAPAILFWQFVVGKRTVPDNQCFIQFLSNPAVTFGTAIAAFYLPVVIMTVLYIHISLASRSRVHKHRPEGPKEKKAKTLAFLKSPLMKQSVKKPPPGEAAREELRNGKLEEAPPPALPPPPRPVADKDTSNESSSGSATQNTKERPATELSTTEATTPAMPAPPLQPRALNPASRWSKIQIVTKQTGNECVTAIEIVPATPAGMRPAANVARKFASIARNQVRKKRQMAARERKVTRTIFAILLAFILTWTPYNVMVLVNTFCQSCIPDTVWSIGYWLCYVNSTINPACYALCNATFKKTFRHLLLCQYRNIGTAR
As to the kind of experiment: Inhibitory activity against forskolin-stimulated accumulation of cyclic adenosine monophosphate (cAMP) in CHO cells expressing human m4 receptor (max. concentration. 1 mM). Type of experiment: functional, cell-based.

Experiment [8] concerns the target T4, Muscarinic acetylcholine receptor M5 (Homo sapiens) (UniProt P08912).
T4 sequence (whole entry): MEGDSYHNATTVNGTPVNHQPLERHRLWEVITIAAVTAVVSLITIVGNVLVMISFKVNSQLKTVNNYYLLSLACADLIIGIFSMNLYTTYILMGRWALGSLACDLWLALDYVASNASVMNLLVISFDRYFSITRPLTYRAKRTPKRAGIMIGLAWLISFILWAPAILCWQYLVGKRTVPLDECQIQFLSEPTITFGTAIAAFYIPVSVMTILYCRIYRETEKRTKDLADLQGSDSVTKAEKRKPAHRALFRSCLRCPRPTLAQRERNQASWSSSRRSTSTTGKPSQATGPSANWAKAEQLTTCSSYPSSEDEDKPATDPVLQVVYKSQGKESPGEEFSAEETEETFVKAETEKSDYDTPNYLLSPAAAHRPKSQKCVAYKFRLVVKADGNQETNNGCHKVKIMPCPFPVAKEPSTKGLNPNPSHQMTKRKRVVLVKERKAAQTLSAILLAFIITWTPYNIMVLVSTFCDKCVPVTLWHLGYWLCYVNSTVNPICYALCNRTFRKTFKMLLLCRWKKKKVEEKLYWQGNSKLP
Kind of experiment: Ability to stimulate inositol phosphate(PI) accumulation in CHO cells expressing human m5 receptor (max. concentration. 100 uM). Type of experiment: functional, cell-based.

Experiment [9] concerns the target T1, Muscarinic acetylcholine receptor (Rattus norvegicus). Kind of experiment: Binding affinity towards muscarinic receptor using [3H]cis-methyldioxolane (CMD) to label agonist sites in membrane preparations from rat neocortex at 100 nM. The format is tissue-based.

`FC(F)(F)c1cc(C#CCO/N=C2\CN3CCC2C3)cc(C(F)(F)F)c1` (stereo not given): the inhibition in [1] is 55%; in [2], 18%.

For `Fc1cccc(C#CCO/N=C2\CN3CCC2C3)c1` (stereo not given), in experiment [3], the Ratio is 132. For the same compound, the 50% inhibitory concentration (IC50) in experiment [4] was found to be 4925 nM; in experiment [5], 37 nM.

As to `COc1cccc(C#CCO/N=C2\CN3CCC2C3)c1` (stereo not given), in [3], the Ratio is 250. Further, the results for the IC50 in [4] and in experiment [5] were 6927 nM and 28 nM, respectively. Also, the inhibition in experiment [6] and in experiment [7] was 0% in each case. This compound gave a PI in experiment [8] of 11%.

`Cc1cccc(C#CCO/N=C2\CN3CCC2C3)c1` (stereo not given): in experiment [3], the Ratio was 186. Besides, the 50% inhibitory concentration (IC50) was found to be 5195 nM in experiment [4] and 28 nM in experiment [5].

Regarding `O=[N+]([O-])c1cccc(C#CCO/N=C2\CN3CCC2C3)c1` (stereo not given), the Ratio in experiment [3] was 226. Further, the half-inhibitory concentration (IC50) turned out to be 6399 nM in experiment [4] and 28 nM in [5].

Turning to `C[N+](C)(C)CCOC(N)=O`, the inhibition in [6] was 58%; in [7], 60%. The PI in experiment [8] amounted to 100%.

As to `C(#Cc1ccc2c(c1)OCO2)CO/N=C1\CN2CCC1C2` (stereo not given), in [3], the Ratio is 110. Moreover, the results for the IC50 in [4] and in experiment [5] were 2547 nM and 23 nM, respectively.

With `COc1ccc(C#CCO/N=C2\CN3CCC2C3)cc1OC` (stereo not given), in [3], the Ratio is 303. For the same compound, the values for the IC50 in [4] and in experiment [5] were 42449 nM and 140 nM, respectively.

As to `COc1ccccc1C#CCO/N=C1\CN2CCC1C2` (stereo not given), the Ratio in [3] was 81. Besides, the IC50 came out at 17658 nM in [4] and 219 nM in experiment [5].

On to `Cc1ccc(C#CCO/N=C2\CN3CCC2C3)cc1` (stereo not given), for which the Ratio in experiment [3] was 125. Further, the IC50 was determined as 11089 nM in [4] and 89 nM in experiment [5].

As to `C(#Cc1ccccc1)CO/N=C1\CN2CCC1C2` (stereo not given), the Ratio in experiment [3] was 109. The figures for the IC50 in experiment [4] and in experiment [5] were 5012 nM and 46 nM, respectively. For the same compound, the inhibition in experiment [6] and in experiment [7] was 0% each time. Besides, in [8], the PI was determined as 1%.

Turning to `Cc1ccccc1C#CCO/N=C1\CN2CCC1C2` (stereo not given), the inhibition in [2] was determined as 56%; in [9], 82%.

In the case of `Clc1ccccc1C#CCO/N=C1\CN2CCC1C2` (stereo not given), the Ratio in experiment [3] was 107. In addition, the values for the half-maximal inhibitory concentration (IC50) in [4] and in experiment [5] were 1305 nM and 12 nM, respectively.

For the compound `COc1ccc(C#CCO/N=C2\CN3CCC2C3)cc1` (stereo not given), the Ratio in experiment [3] was 119. The IC50 in [4] was found to be 13101 nM; in [5], 110 nM.

As for `FC(F)(F)c1cccc(C#CCO/N=C2\CN3CCC2C3)c1` (stereo not given), the Ratio in experiment [3] was 134. For the same compound, the IC50 in experiment [4] stood at 4237 nM; in experiment [5] it was 32 nM.

Consider `Fc1ccc(C#CCO/N=C2\CN3CCC2C3)cc1` (stereo not given), for which the Ratio in experiment [3] was 204. Besides, the IC50 in experiment [4] is 6092 nM; in [5], 30 nM.

`Fc1ccccc1C#CCO/N=C1\CN2CCC1C2` (stereo not given): in experiment [3], the Ratio is 159. Moreover, the figures for the IC50 in [4] and in [5] were 4443 nM and 28 nM, respectively.

On to `Clc1ccc(C#CCO/N=C2\CN3CCC2C3)cc1` (stereo not given), for which the Ratio in experiment [3] is 119. The IC50 was 6300 nM in experiment [4] and 53 nM in experiment [5].

Regarding `C(#Cc1ccc2c(c1)OCCO2)CO/N=C1\CN2CCC1C2` (stereo not given), the inhibition in [1] was found to be 39%; in experiment [2] it was 0%.

In the case of `Clc1cccc(C#CCO/N=C2\CN3CCC2C3)c1` (stereo not given), the Ratio in [3] is 202. Also, the IC50 in experiment [4] is given as 3882 nM; in experiment [5] it was 19 nM.

For `Clc1cc(Cl)cc(C#CCO/N=C2\CN3CCC2C3)c1` (stereo not given), the inhibition was 53% in [1] and 18% in experiment [2].

The values are drawn from ChEMBL document CHEMBL1128858, “Z-()-1-azabicyclo[2.2.1]heptan-3-one, O-(3-aryl-2-propynyl) oximes as potential m1-subtype selective muscarinic agonists” (Bioorg Med Chem Lett, 1995).
